Experimental data: publication PMC7872314, “Modeling Bioavailable Concentrations in Zebrafish Cell Lines and Embryos Increases the Correlation of Toxicity Potencies across Test Systems” (Environmental Science & Technology, 2020)
Like-named read-outs stand apart in the source and are kept apart here.

Columns and labels:
[1] = tested on: ZF4 (fibroblasts) cell line; experiment: MTS assay (MTS/BCA multiplex), NAD(P)H metabolism; format: cell-based, zebrafish (Danio rerio); details: Danio rerio, Fibroblast
[2] = tested on: ZFL (hepatocytes) cell line; experiment: cells; format: cell-based, zebrafish (Danio rerio); details: Danio rerio, Hepatocyte
[3] = tested on: ZF4 (fibroblasts) cell line; experiment: BCA assay (MTS/BCA multiplex), protein amount; format: cell-based, zebrafish (Danio rerio); details: Danio rerio, Fibroblast
[4] = tested on: ZFL (hepatocytes) cell line; experiment: cells; format: cell-based, zebrafish (Danio rerio); details: Danio rerio, Hepatocyte; remark: listed apart in the source
[5] = tested on: ZF4 (fibroblasts) cell line; experiment: ATP assay (ATP/LDH multiplex), ATP metabolism; format: cell-based, zebrafish (Danio rerio); details: Danio rerio, Fibroblast
[6] = tested on: ZFL (hepatocytes) cell line; experiment: cells; format: cell-based, zebrafish (Danio rerio); details: Danio rerio, Hepatocyte; remark: listed apart in the source
[7] = tested on: ZF4 (fibroblasts) cell line; experiment: alamarBlue (AB) endpoint of AB/CFDA/NR multiplex, cellular respiration; format: cell-based, zebrafish (Danio rerio); details: Danio rerio, Fibroblast
[8] = tested on: ZFL (hepatocytes) cell line; experiment: cells; format: cell-based, zebrafish (Danio rerio); details: Danio rerio, Hepatocyte; remark: listed apart in the source
[9] = tested on: ZF4 (fibroblasts) cell line; experiment: CFDA endpoint of AB/CFDA/NR multiplex, membrane stability; format: cell-based, zebrafish (Danio rerio); details: Danio rerio, Fibroblast
[10] = tested on: ZFL (hepatocytes) cell line; experiment: cells; format: cell-based, zebrafish (Danio rerio); details: Danio rerio, Hepatocyte; remark: listed apart in the source
[11] = tested on: ZF4 (fibroblasts) cell line; experiment: Neutral red, absorbance (NRa), AB/CFDA/NR multiplex, lysosome stability; format: cell-based, zebrafish (Danio rerio); details: Danio rerio, Fibroblast
[12] = tested on: ZFL (hepatocytes) cell line; experiment: cells; format: cell-based, zebrafish (Danio rerio); details: Danio rerio, Hepatocyte; remark: listed apart in the source
[13] = tested on: ZF4 (fibroblasts) cell line; experiment: Neutral red, fluorescence (NRf), AB/CFDA/NR multiplex, lysosome stability; format: cell-based, zebrafish (Danio rerio); details: Danio rerio, Fibroblast
[14] = tested on: ZFL (hepatocytes) cell line; experiment: cells; format: cell-based, zebrafish (Danio rerio); details: Danio rerio, Hepatocyte; remark: listed apart in the source
zebrafish embryos [15] = experiment: animal or person; format: in vivo, zebrafish (Danio rerio); details: for EC50: Danio rerio
ZF4 and ZFL cell lines = experiment: Cytotoxicity assays, all endpoints, both cell lines (mean/range); format: cell-based, zebrafish (Danio rerio); details: 48 h
zebrafish embryos [16] = tested on: zebrafish embryos; set-up: method as in earlier work; details: nominal, cited from earlier work
[17] = tested on: diverse mammalian cell assay results; set-up: method as in https://comptox.epa.gov/dashboard/; details: COMPTOX; ref https://comptox.epa.gov/dashboard/; read-out: median AC50; cited from earlier work
[18] = ref Comptox, PubChem or DrugBank; cited from earlier work

Compound: CCCSc1ccc2nc(NC(=O)OC)[nH]c2c1 [Albendazole, albendazole]
- IC50 ([1]; MTS - ZF4, log10 of IC50, read-out: LogIC50 (converted)): 10.1 µM
- IC50 ([1]; MTS - ZF4, read-out: IC50): 10.1 µM
- IC50 ([1]; ZF4, 48 h exposure, nominal, log10, read-out: logIC50 (log10 IC50;nom) MTS (converted)): 10 µM
- IC50 ([1]; ZF4, 48 h exposure, nominal, read-out: IC50;nom MTS): 10.1 µM
- IC50 ([2]; MTS - ZFL, log10 of IC50, read-out: LogIC50 (converted)): 0.418 µM
- IC50 ([2]; MTS - ZFL, read-out: IC50): 0.418 µM
- IC50 ([2]; ZFL, 48 h exposure, nominal, log10, read-out: logIC50 (log10 IC50;nom) MTS (converted)): 0.417 µM
- IC50 ([2]; ZFL, 48 h exposure, nominal, read-out: IC50;nom MTS): 0.418 µM
- IC50 ([3]; BCA - ZF4, log10 of IC50, read-out: LogIC50 (converted)): 0.555 µM
- IC50 ([3]; BCA - ZF4, read-out: IC50): 0.555 µM
- IC50 ([3]; ZF4, 48 h exposure, nominal, log10, read-out: logIC50 (log10 IC50;nom) BCA (converted)): 0.55 µM
- IC50 ([3]; ZF4, 48 h exposure, nominal, read-out: IC50;nom BCA): 0.555 µM
- IC50 ([4]; BCA - ZFL, log10 of IC50, read-out: LogIC50 (converted)): 0.0309 µM
- IC50 ([4]; BCA - ZFL, read-out: IC50): 0.0309 µM
- IC50 ([4]; ZFL, 48 h exposure, nominal, log10, read-out: logIC50 (log10 IC50;nom) BCA (converted)): 0.0309 µM
- IC50 ([4]; ZFL, 48 h exposure, nominal, read-out: IC50;nom BCA): 0.0309 µM
- IC50 ([5]; ATP - ZF4, log10 of IC50, read-out: LogIC50 (converted)): 3.25 µM
- IC50 ([5]; ATP - ZF4, read-out: IC50): 3.25 µM
- IC50 ([5]; ZF4, 48 h exposure, nominal, log10, read-out: logIC50 (log10 IC50;nom) ATP (converted)): 3.24 µM
- IC50 ([5]; ZF4, 48 h exposure, nominal, read-out: IC50;nom ATP): 3.25 µM
- IC50 ([6]; ATP - ZFL, log10 of IC50, read-out: LogIC50 (converted)): 0.542 µM
- IC50 ([6]; ATP - ZFL, read-out: IC50): 0.542 µM
- IC50 ([6]; ZFL, 48 h exposure, nominal, log10, read-out: logIC50 (log10 IC50;nom) ATP (converted)): 0.537 µM
- IC50 ([6]; ZFL, 48 h exposure, nominal, read-out: IC50;nom ATP): 0.542 µM
- IC50 ([7]; AB - ZF4, log10 of IC50, read-out: LogIC50 (converted)): 7.79 µM
- IC50 ([7]; AB - ZF4, read-out: IC50): 7.79 µM
- IC50 ([7]; ZF4, 48 h exposure, nominal, log10, read-out: logIC50 (log10 IC50;nom) AB (converted)): 7.76 µM
- IC50 ([7]; ZF4, 48 h exposure, nominal, read-out: IC50;nom AB): 7.79 µM
- IC50 ([8]; AB - ZFL, log10 of IC50, read-out: LogIC50 (converted)): 3.72 µM
- IC50 ([8]; AB - ZFL, read-out: IC50): 3.72 µM
- IC50 ([8]; ZFL, 48 h exposure, nominal, log10, read-out: logIC50 (log10 IC50;nom) AB (converted)): 3.72 µM
- IC50 ([8]; ZFL, 48 h exposure, nominal, read-out: IC50;nom AB): 3.72 µM
- IC50 ([9]; CFDA - ZF4, log10 of IC50, read-out: LogIC50 (converted)): 75.4 µM
- IC50 ([9]; CFDA - ZF4, read-out: IC50): 75.4 µM
- IC50 ([9]; ZF4, 48 h exposure, nominal, log10, read-out: logIC50 (log10 IC50;nom) CFDA (converted)): 75.9 µM
- IC50 ([9]; ZF4, 48 h exposure, nominal, read-out: IC50;nom CFDA): 75.4 µM
- IC50 ([10]; CFDA - ZFL, log10 of IC50, read-out: LogIC50 (converted)): 221 µM
- IC50 ([10]; CFDA - ZFL, read-out: IC50): 221 µM
- IC50 ([10]; ZFL, 48 h exposure, nominal, log10, read-out: logIC50 (log10 IC50;nom) CFDA (converted)): 219 µM
- IC50 ([10]; ZFL, 48 h exposure, nominal, read-out: IC50;nom CFDA): 221 µM
- IC50 ([11]; NR-abs - ZF4, log10 of IC50, read-out: LogIC50 (converted)): 2.36 µM
- IC50 ([11]; NR-abs - ZF4, read-out: IC50): 2.36 µM
- IC50 ([11]; ZF4, 48 h exposure, nominal, log10, read-out: logIC50 (log10 IC50;nom) NRa (converted)): 2.34 µM
- IC50 ([11]; ZF4, 48 h exposure, nominal, read-out: IC50;nom NRa): 2.36 µM
- IC50 ([11]; ZF4 cell line, NRa endpoint, nominal, read-out: IC50;nom): 0.63 µg/mL
- IC50 ([12]; NR-abs - ZFL, log10 of IC50, read-out: LogIC50 (converted)): 0.904 µM
- IC50 ([12]; NR-abs - ZFL, read-out: IC50): 0.904 µM
- IC50 ([12]; ZFL, 48 h exposure, nominal, log10, read-out: logIC50 (log10 IC50;nom) NRa (converted)): 0.912 µM
- IC50 ([12]; ZFL, 48 h exposure, nominal, read-out: IC50;nom NRa): 0.904 µM
- IC50 ([13]; NR-fluo - ZF4, log10 of IC50, read-out: LogIC50 (converted)): 3.61 µM
- IC50 ([13]; NR-fluo - ZF4, read-out: IC50): 3.61 µM
- IC50 ([13]; ZF4, 48 h exposure, nominal, log10, read-out: logIC50 (log10 IC50;nom) NRf (converted)): 3.63 µM
- IC50 ([13]; ZF4, 48 h exposure, nominal, read-out: IC50;nom NRf): 3.61 µM
- IC50 ([14]; NR-fluo - ZFL, log10 of IC50, read-out: LogIC50 (converted)): 0.724 µM
- IC50 ([14]; NR-fluo - ZFL, read-out: IC50): 0.724 µM
- IC50 ([14]; ZFL, 48 h exposure, nominal, log10, read-out: logIC50 (log10 IC50;nom) NRf (converted)): 0.724 µM
- IC50 ([14]; ZFL, 48 h exposure, nominal, read-out: IC50;nom NRf): 0.724 µM
- difference in toxicity (EC50;nom) between 48 hpf and 144 hpf (zebrafish embryos [15]; 48 hpf time point less sensitive than 144 hpf): approximately the same
- log EC50;nom (mFET) (zebrafish embryos [15]; 48 hpf, nominal, log10, listed as Abz): -6.783 M
- EC50 (zebrafish embryos [15]; 48 hpf, nominal, log10, read-out: log EC50;nom (mFET) (converted)): 0.166 µM
- EC50 (zebrafish embryos [15]; 48 hpf, nominal, read-out: EC50;nom (embryo)): 0.05 µg/mL
- EC50 (zebrafish embryos [15]; read-out: EC50 48hpf): 0.165 µM
- EC50 (zebrafish embryos [15]; read-out: EC50;nom (mFET)): 0.165 µM
- IC50 (ZF4 and ZFL cell lines; Danio rerio, read-out: Mean log IC50nom, mean of all cytotoxicity endpoints (without LDH) in ZF4 and ZFL, 48 h, log10 (converted)): 2.51 µM
- Mean log IC50nom (ZF4 and ZFL cell lines; mean of all cytotoxicity endpoints (without LDH) in ZF4 and ZFL, log10, listed as Abz): -5.604 M
- EC50 (zebrafish embryos [16]; 144 hpf, converted): 0.158 µM
- logEC50 144 hpf (zebrafish embryos [16]; log10): -6.8 M
- AC50 [17]: 0.41 µM
- BCF [18]: 41.2
- Physiological charge [18]: 0
- logKoa [18]: 9.35
- logKow [18]: 3.07
- pKa (Strongest Acidic) [18]: 9.51
- pKa (Strongest Basic) [18]: 4.27
- w_solubility (water solubility) [18]: 85.2 µM
